Experimental findings from ChEMBL document CHEMBL3044824, “Synthesis and Acaricidal Activity of 1-Arylmethyl-2-arylimidazolidines” (2001) are described below.

Assay type in all cases: functional
For assay [1], the system named is Tetranychus urticae. In words: Acaricidal activity against Tetranychus urticae (two-spotted spider mite) in second leaf stage of Phaseolus vulgaris var. Serena assessed as mortality at 500 ppm after 7 days.
Assay [2] deals with Tetranychus urticae. In words: Acaricidal activity against Tetranychus urticae (two-spotted spider mite) in second leaf stage of Phaseolus vulgaris var. Serena assessed as mortality at 200 ppm after 7 days.
The test system of assay [3] is Tetranychus urticae. In words: Acaricidal activity against Tetranychus urticae (two-spotted spider mite) in second leaf stage of Phaseolus vulgaris var. Serena assessed as mortality at 100 ppm after 7 days.
Assay [4] deals with Tetranychus urticae. Nature of the assay: Acaricidal activity against Tetranychus urticae (two-spotted spider mite) in second leaf stage of Phaseolus vulgaris var. Serena assessed as mortality at 50 ppm after 7 days.

Bounds are passed on as bounds.

On to `c1ccc(CC2=NCCN2Cc2ccccc2)cc1`, for which the Activity in assay [1] is <24%.
As to `Clc1cccc(Cl)c1CN1CCN=C1c1ccccc1`, the figures for the Activity in assay [1] and in assay [2] were >80% and 25%, respectively.
Take `Clc1cccc(C2=NCCN2Cc2ccccc2)c1`: in assay [1], the Activity is <24%.
Turning to `c1ccc(CCN2CCN=C2c2ccccc2)cc1`, the Activity in assay [1] amounted to 25%.
For the molecule `CC1(C)CN=C(c2ccccc2)N(Cc2ccc(Cl)cc2)C1`, the values for the Activity in assay [1], in assay [3] and in assay [2] were >80%, 25% and 50%, respectively.
On to `Clc1ccc(CN2CCN=C2c2ccccc2)cn1`, for which the values for the Activity in assay [1] and in assay [2] were 50% and <24%, respectively.
The matching figures for `Clc1cccc(CN2CCN=C2c2ccccc2)c1`: >80% and 25%.
On to `c1ccc(CN2CCN=C2c2ccccc2)cc1`, for which the Activity worked out at 50% in assay [1] and 25% in assay [2].
Turning to `Cc1ccc(CN2CCN=C2c2ccccc2)cc1`, the Activity in assay [1] is <24%.
Turning to `c1ccc(C2=NCCN2Cc2ccncc2)cc1`, the Activity is >80% in assay [1], >80% in assay [3] and 50% in assay [2].
On to `Clc1ccc(CN2CCN=C2c2ccccc2)cc1`, for which the Activity in assay [1], in assay [3], in assay [4] and in assay [2] was >80% in each case.
As for `Fc1cccc(F)c1C1=NCCN1Cc1ccccc1`, the Activity in assay [1], in assay [3], in assay [4] and in assay [2] was >80% each time.
Consider `CC(C)(C)c1ccc(CN2CCN=C2c2ccccc2)cc1`, for which the figures for the Activity in assay [1], in assay [3] and in assay [2] were >80%, 25% and 50%, respectively.
Take `Clc1ccc(CC2=NCCN2Cc2ccc(Cl)cc2)cc1`: the Activity in assay [1] is reported as <24%.
In the case of `c1ccc(C2=NCCN2Cc2cccnc2)cc1`, the results for the Activity in assay [1], in assay [3] and in assay [2] were >80%, 25% and 50%, respectively.
Turning to `Clc1ccc(CN2CCN=C2c2cccnc2)cn1`, the Activity in assay [1] came out at 50%; in assay [2], 25%.
`c1ccc(C2=NCCN2c2ccccc2)cc1`: the Activity in assay [1] is listed as <24%.
Same read-out and setting: with `COc1ccc(CN2CCN=C2c2ccccc2)cc1` the figure was <24%; with `c1ccc(CN2CCN=C2c2cccnc2)cc1`, 25%; with `Clc1ccc(C2=NCCN2Cc2ccccc2)cc1`, <24%.
With `Clc1ccc(CN2CCCN=C2c2ccccc2)cc1`, the results for the Activity in assay [1] and in assay [2] were 50% and 25%, respectively.
For `Clc1ccc(CN2CCN=C2c2ccccc2)c(Cl)c1`, the Activity in assay [1] was found to be 25%.
As for `Clc1ccc(CN2CCN=C2c2cccnc2)cc1`, the Activity is reported as >80% in assay [1], 50% in assay [3], 25% in assay [4] and >80% in assay [2].
For `Fc1cccc(F)c1C1=NCCN1Cc1ccc(Cl)cc1`, the Activity in assay [1] is >80%; in assay [3], >80%; in assay [4] it was 25%; in assay [2], >80%.
On to `Clc1ccccc1C1=NCCN1Cc1ccccc1`, for which the Activity in assay [1] is >80%; in assay [3] it was 25%; in assay [2] it was 50%.
For `c1cncc(CN2CCN=C2c2cccnc2)c1` the same measures were >80%, 25% and 50%.
For the molecule `c1ccc(C2=NCCN2Cc2ccc(-c3ccccc3)cc2)cc1`, the Activity in assay [1] is given as >80%; in assay [3], 50%; in assay [4] it was 25%; in assay [2], >80%.
With `Clc1ccccc1CN1CCN=C1c1ccccc1`, the figures for the Activity in assay [1], in assay [3] and in assay [2] were >80%, 25% and 50%, respectively.
